# Reference: PMC9821843, “Powerful Potential of Polyfluoroalkyl-Containing 4-Arylhydrazinylidenepyrazol-3-ones for Pharmaceuticals” (Molecules, 2022)
# Like-named read-outs stand apart in the source and are kept apart here.
# Experiments:
# [1] = Oxygen radical absorbance capacity (ORAC-FL) assay; details: n.a. = inactive; i.t.s. = interferes with test system
# Description: We evaluated the primary antioxidant activity of synthesized 4-AHPs 5–9 in comparison with their non-fluorinated analogues 9a,b using three standard tests: ABTS, FRAP (ferric reducing antioxidant power) and ORAC (oxygen radical absorbance capacity) assays. The ABTS assay evaluates the binding of a model ABTS radical cation (ABTS^•+), which is realized by the mechanism of single electron transfer (SET) and/or hydrogen atom transfer (HAT). The FRAP assay measures the ability of compounds to reduce the ferric 2,4,6-tripyridyl-s-triazine complex [Fe(TPTZ)2]^3+ to [Fe(TPTZ)2]^2+, which occurs exclusively by the SET mechanism. The ORAC-FL assay measures the oxidative degradation of the fluorescent molecule (FL – fluorescein) after being mixed with a free peroxyl radical generator such as 2,2′-azobis-(2-methylpropionamidine) dihydrochloride (AAPH) in the presence of antioxidant (tested compound). The ORAC-FL test describes the antioxidants’ ability to yield the hydrogen atom and, consequently, it is a HAT-based assay. Trolox was used in all tests as a reference antioxidant: the antioxidant activity of the test compounds was referred to the activity of Trolox. The well-known antioxidant Edaravone was also used for comparison.
# The ORAC assay was performed according to the known method, with minor variations and described by us recently.
# [2] = tested on: Epidermophyton floccosum RCPF F 1659/17; assay: Antifungal susceptibility testing, E. floccosum; details: Epidermophyton floccosum, RCPFF1659/17, read-out: MIC for fungi strains inhibition, E. floccosum
# Description: (§2) The solvent was DMSO. […] In each test, a growth control and a sterility control were used.
# [3] = biological target: T1, human erythrocyte acetylcholinesterase (AChE, EC 3.1.1.7) (Homo sapiens, UniProt P22303); assay: Inhibition of human erythrocyte acetylcholinesterase (Ellman assay); type: biochemical; details: read-out: Inhibition % at 20 µM, Human AChE
# T1 construct: human erythrocyte acetylcholinesterase (AChE, EC 3.1.1.7); purchased Sigma-Aldrich (Saint Louis, MO, USA); host or cells: human erythrocytes
# T1 sequence (P22303 32-617 isoform P22303-2 limits assumed): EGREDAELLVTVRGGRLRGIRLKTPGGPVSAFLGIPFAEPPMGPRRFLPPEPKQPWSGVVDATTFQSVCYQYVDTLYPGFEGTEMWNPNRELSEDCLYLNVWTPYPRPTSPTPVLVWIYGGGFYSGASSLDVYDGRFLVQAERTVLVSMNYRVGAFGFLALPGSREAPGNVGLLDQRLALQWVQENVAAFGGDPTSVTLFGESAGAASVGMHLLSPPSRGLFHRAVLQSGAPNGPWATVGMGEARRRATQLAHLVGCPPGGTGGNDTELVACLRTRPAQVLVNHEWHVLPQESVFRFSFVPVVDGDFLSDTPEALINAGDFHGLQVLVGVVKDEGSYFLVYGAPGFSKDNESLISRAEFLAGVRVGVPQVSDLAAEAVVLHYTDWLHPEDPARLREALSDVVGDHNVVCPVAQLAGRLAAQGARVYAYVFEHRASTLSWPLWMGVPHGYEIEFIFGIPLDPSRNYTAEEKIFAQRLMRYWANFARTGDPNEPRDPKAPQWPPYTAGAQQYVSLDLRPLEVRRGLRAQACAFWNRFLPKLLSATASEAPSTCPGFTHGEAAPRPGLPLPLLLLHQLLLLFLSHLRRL
# Description: (§1) The following enzymes were purchased from Sigma-Aldrich (Saint Louis, MO, USA): porcine liver carboxylesterase (CES, EC 3.1.1.1), human erythrocyte acetylcholinesterase (AChE, EC 3.1.1.7) and equine serum butyrylcholinesterase (BChE, EC 3.1.1.8). Substrates for CES, AChE and BChE were 4-nitrophenyl acetate (4-NPA), acetylthiocholine iodide (ATCh) and butyrylthiocholine iodide (BTCh), respectively, and the colorimetric reagent for the AChE and BChE assays was 5,5’-dithio-bis-(2-nitrobenzoic acid) (DTNB) (Sigma-Aldrich). All the kinetic experiments were performed under standard conditions, according to the protocol of IPAC RAS for a reversible inhibitors study.
# Reagent blanks consisted of reaction mixtures without enzyme to assess non-enzymatic hydrolysis of substrates.
# Test compounds were dissolved in DMSO. Reaction mixtures contained a final DMSO concentration of 2% (v/v). […] Measurements were performed in a Bio-Rad Benchmark Plus microplate reader. Each experiment was performed in triplicate. Plots, linear regressions and values of IC50, were determined using Origin 6.1 for Windows, OriginLab (Northampton, MA, USA).
# [4] = Acute toxicity evaluation in mice (ip); details: CD-1, mouse, in vivo, 300 mg/kg
# Procedure: The toxicity evaluation was performed on CD-1 mice. […] The tested compounds in 1% starch mucilage were injected intraperitoneally into three mice. Then, animals were observed during 14 days, the number of deaths was counted and % of viability calculated.
# [5] = tested on: Candida albicans RCPF Y 401/NCTC 885/653; assay: Antifungal susceptibility testing, C. albicans; details: NCTC885, read-out: MIC for fungi strains inhibition, C. albicans
# Description: as §2
# Sprague-Dawley (SD) rats = assay: Hot plate test (analgesic activity); type: in vivo; details: ip; for change in vivo at 15 mg/kg: Rattus norvegicus
# Procedure: The hot plate test was conducted according to established guidelines on Sprague-Dawley (SD) rats (3 male and 3 female rodents per group). The compounds were intraperitoneally administered in the form of suspensions in 1% starch mucilage. Negative control group animals received vehicle only (1% starch mucilage). Diclofenac sodium (Hemofarm, Vršac, Serbia, 10 mg/kg in 1% starch mucilage solution) or metamizole sodium (PAO Biosynthesis, Sun Pharma, Penza, Russia, 15 mg/kg in 1% starch mucilage solution) were used as reference drugs. One and two hours after the injection, rats were placed on an electrically heated to 50 °C plate (Hot plate 60,200 series, TSE-systems, Bad Homburg, Germany) in a Plexiglas cylindrical restrainer (19 cm diameter × 30 cm). The nociceptive response time was measured by observing the appearance of rats’ movements (e.g., jumping, hind paw licking or shaking). Maximal cutoff time was set as 30 s regardless of the response in order to preclude skin damage.
# Differences between the values of the latency period for the treated (experimental) and control groups of animals were considered significant at p ≤ 0.05.
# [6] = biological target: porcine liver carboxylesterase (CES, EC 3.1.1.1) (Sus scrofa, UniProt Q29550); assay: Inhibition of porcine liver carboxylesterase (4-NPA colorimetric assay); type: biochemical; details: mean ± SEM, n = 3; for inhibition at 20 µM: n.a. = inactive at 20 µM
# Chain of porcine liver carboxylesterase (CES, EC 3.1.1.1) (Q29550 19-566): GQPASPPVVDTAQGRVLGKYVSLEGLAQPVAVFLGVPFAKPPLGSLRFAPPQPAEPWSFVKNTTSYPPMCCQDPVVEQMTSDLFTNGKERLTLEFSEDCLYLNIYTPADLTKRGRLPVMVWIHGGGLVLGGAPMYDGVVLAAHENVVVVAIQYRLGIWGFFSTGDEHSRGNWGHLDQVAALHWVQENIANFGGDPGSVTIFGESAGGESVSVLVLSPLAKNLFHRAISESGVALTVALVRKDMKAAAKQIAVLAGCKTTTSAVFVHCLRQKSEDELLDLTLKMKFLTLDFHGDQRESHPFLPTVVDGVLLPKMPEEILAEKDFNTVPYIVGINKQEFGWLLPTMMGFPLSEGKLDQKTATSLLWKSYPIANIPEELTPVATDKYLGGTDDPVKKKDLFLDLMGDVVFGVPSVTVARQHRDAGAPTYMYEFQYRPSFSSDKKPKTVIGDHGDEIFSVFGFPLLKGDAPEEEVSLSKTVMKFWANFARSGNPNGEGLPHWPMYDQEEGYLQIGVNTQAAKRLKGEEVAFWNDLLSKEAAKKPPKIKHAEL
# Description: as §1
# The CES (porcine liver) activity was assessed colorimetrically in 0.1 M K/Na phosphate buffer pH 8.0, 25 °C, by measuring the absorbance of 4-nitrophenol at 405 nm. Final enzyme and substrate (4-NPA) concentrations were 0.02 unit/mL and 1 mM, respectively. Reagent blanks included all constituents except enzyme.
# Test compounds were dissolved in DMSO. Reaction mixtures contained a final DMSO concentration of 2% (v/v). Enzyme inhibition was first assessed at a single concentration of 20 µM for each compound after a 5 min incubation at 25 °C in three separate experiments. […] Substrate was then added and residual enzyme activity relative to an inhibitor-free control was measured using a Bio-Rad Benchmark Plus microplate reader (Marnes-la-Coquette, France).
# Measurements were performed in a Bio-Rad Benchmark Plus microplate reader. Each experiment was performed in triplicate. Plots, linear regressions and values of IC50, were determined using Origin 6.1 for Windows, OriginLab (Northampton, MA, USA). Results were calculated using GraphPad Prism version 6.05 for Windows, GraphPad Software (La Jolla, CA, USA) and presented as mean ± SEM.
# [7] = biological target: T2, equine serum butyrylcholinesterase (BChE, EC 3.1.1.8) (Equus caballus, UniProt P81908); assay: Inhibition of equine serum butyrylcholinesterase (Ellman assay); type: biochemical; details: read-out: Inhibition % at 20 µM, Equine BChE
# T2 construct: equine serum butyrylcholinesterase (BChE, EC 3.1.1.8); purchased Sigma-Aldrich (Saint Louis, MO, USA); host or cells: equine serum
# T2 sequence (P81908 whole entry): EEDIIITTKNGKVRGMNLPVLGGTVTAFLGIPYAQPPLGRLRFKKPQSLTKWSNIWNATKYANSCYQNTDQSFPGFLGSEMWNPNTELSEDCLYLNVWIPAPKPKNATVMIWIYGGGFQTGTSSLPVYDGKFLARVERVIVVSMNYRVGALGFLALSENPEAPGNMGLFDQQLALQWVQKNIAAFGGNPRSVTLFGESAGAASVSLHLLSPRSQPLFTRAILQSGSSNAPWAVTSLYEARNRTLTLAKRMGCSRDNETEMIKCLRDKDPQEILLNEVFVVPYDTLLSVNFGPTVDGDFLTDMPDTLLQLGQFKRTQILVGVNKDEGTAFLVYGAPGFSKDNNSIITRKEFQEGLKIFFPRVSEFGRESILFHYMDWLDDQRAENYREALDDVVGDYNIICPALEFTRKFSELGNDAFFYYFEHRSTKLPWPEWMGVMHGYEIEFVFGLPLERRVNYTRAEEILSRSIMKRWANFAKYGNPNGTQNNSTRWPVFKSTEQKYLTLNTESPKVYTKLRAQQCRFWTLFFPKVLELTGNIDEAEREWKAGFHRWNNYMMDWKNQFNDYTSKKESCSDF
# Description: as §1
# Final concentrations of reactants were 0.33 mM DTNB, 0.02 unit/mL of AChE or BChE and 1 mM of substrate (ATCh or BTCh, respectively). Reagent blanks consisted of reaction mixtures without enzyme to assess non-enzymatic hydrolysis of substrates.
# Test compounds were dissolved in DMSO. Reaction mixtures contained a final DMSO concentration of 2% (v/v). […] Substrate was then added and residual enzyme activity relative to an inhibitor-free control was measured using a Bio-Rad Benchmark Plus microplate reader (Marnes-la-Coquette, France).
# Measurements were performed in a Bio-Rad Benchmark Plus microplate reader. Each experiment was performed in triplicate. Plots, linear regressions and values of IC50, were determined using Origin 6.1 for Windows, OriginLab (Northampton, MA, USA).
# [8] = tested on: Neisseria gonorrhoeae ATCC 49226/NCTC 12700; assay: Antibacterial activity against Neisseria gonorrhoeae; type: cell-based; details: read-out: MIC against Neisseria gonorrhoeae
# Procedure: Antibacterial activity testing was done on the growth medium Difco GC medium base (Becton Dickinson, Franklin Lakes, NJ, USA) supplemented with 1% IsoVitaleX. Dilutions of chemical compounds were carried out in the range of 250–0.12 μg/mL in 24 well sterile plates (Sarstedt, Germany). Daily cultures of control bacterial strains were identified on a VITEK MS analyzer (BioMérieux, Marcy-l’Étoile, France) by MALDI-TOF mass spectrometry. The inoculation dose of N. gonorrhoeae inoculum was 10^5 CFU/mL.
# [9] = tested on: Microsporum canis RCPF F 1643/1585; assay: Antifungal susceptibility testing, M. canis; details: Microsporum canis, RCPFF1643/1585, read-out: MIC for fungi strains inhibition, M. canis
# Description: as §2
# [10] = tested on: Trichophyton rubrum RCPF F 1408; assay: Antifungal susceptibility testing, T. rubrum; details: Trichophyton rubrum, RCPFF1408, read-out: MIC for fungi strains inhibition, T. rubrum
# Description: as §2
# [11] = ABTS radical cation scavenging activity assay; details: mean ± SEM
# Procedure: Radical scavenging activity of the compounds was evaluated by the ABTS radical cation (ABTS^•+) scavenging assay by the ability of the compounds to decolorize the ABTS^•+ solution [112] with some modifications. Trolox was used as a reference standard. Edaravone was used as the comparison compound. All tested compounds and standards were dissolved in DMSO. ABTS (2,2′-azinobis-(3-ethylbenzothiazoline-6-sulfonic acid)) was purchased from Tokyo Chemical Industry Co. Ltd. (Tokyo, Japan). Potassium persulfate (di-potassium peroxdisulfate), Trolox® (6-hydroxy-2,5,7,8-tetramethychroman-2-carboxylic acid), ascorbic acid, DMSO and HPLC-grade ethanol were obtained from Sigma-Aldrich Chemical Co. Aqueous solutions were prepared using deionized water.
# The solution of ABTS^•+ was produced by mixing 7 mM ABTS aqueous solution with 2.45 mM potassium persulfate aqueous solution in equal quantities and allowing them to react for 12–16 h at room temperature in the dark. Radical scavenging capacity of the compounds was analyzed by mixing 10 μL of compound with 240 μL of ABTS^•+ working solution in ethanol (100 μM final concentration), and after 1 h of incubation at 30 °C the decrease in absorbance was measured spectrophotometrically at 734 nm using a Bio-Rad xMark microplate UV/VIS spectrophotometer (Bio-Rad, Hercules, CA, USA). The compounds were tested in the concentration range of 5 × 10^–7–4 × 10^–4 M. Ethanol blanks were run in each assay. Values were obtained from five replicates of each sample and three independent experiments.
# Antioxidant activity was calculated as Trolox equivalent antioxidant capacity (TEAC values), consisting of the ratio between the slopes obtained from the linear correlation for concentrations of the tested compounds and Trolox with absorbance of ABTS radical. For the test compounds, which reduce ABTS^•+ absorbance by more than 60% at 100 µM, we also determined IC50 values as 50% reduction of the ABTS radical. The calculations were carried out using Origin 6.1 for Windows. Results were presented as mean ± SEM, calculated using GraphPad Prism version 6.05 for Windows, GraphPad Software.
# [12] = hot plate test, rats, dose 15 mg/kg, 1 h, n.a. = inactive (p > 0.05), read-out: Latent Period Prolongation, % 1 h
# [13] = hot plate test, rats, dose 15 mg/kg, 2 h, n.a. = inactive (p > 0.05), read-out: Latent Period Prolongation, % 2 h
Structure (SMILES),"ORAC-FL (TE, antioxidant activity in Trolox equivalents) [1]",MIC [2] [µg/mL],inhibition at 20 µM [3] [%],survival at 14 days [4] [%],MIC [5] [µg/mL],change in vivo at 15 mg/kg (Sprague-Dawley (SD) rats; [12]) [%],change in vivo at 15 mg/kg (Sprague-Dawley (SD) rats; [13]) [%],inhibition at 20 µM [6] [%],inhibition at 20 µM [7] [%],MIC [8] [µg/mL],MIC [9] [µg/mL],MIC [10] [µg/mL],"analgesic activity in the hot plate test (Sprague-Dawley (SD) rats; SD rats, dose 15 mg/kg, 1 and 2 h)",IC50 [11] [nM],"ABTS•+-scavenging activity, TEAC (trolox equivalent antioxidant capacity) ([11]; n.a. = inactive)","change in vivo at 15 mg/kg (Sprague-Dawley (SD) rats; 1 h, read-out: Latent Period Prolongation, % 1 h) [%]","change in vivo at 15 mg/kg (Sprague-Dawley (SD) rats; 2 h, read-out: Latent Period Prolongation, % 2 h) [%]","IC50 ([6]; read-out: Inhibitory Activity IC50 ± SEM, Porcine CES) [nM]"
"O=C1/C(=N\Nc2ccccc2Cl)C(C(F)(F)F)=NN1c1ccccc1 [5i, (4Z)-4-[2-(2-Chlorophenyl)hydrazinylidene]-2-phenyl-5-(trifluoromethyl)-2,4-dihydro-3H-pyrazol-3-one]",i.t.s.,> 200,6.3 ± 1,100,> 200,42,61,23.2 ± 1.8,6.4 ± 1.3,> 250,> 200,> 200,–,–,–,–,–,–
"O=C1/C(=N\Nc2ccc(S(=O)(=O)O)cc2)C(C(F)(F)F)=NN1c1ccccc1 [5o, (4Z)-4-(2-[4-(Sulfo)phenyl]hydrazinylidene)-2-phenyl-5-(trifluoromethyl)-2,4-dihydro-3H-pyrazol-3-one]",i.t.s.,–,–,100,–,109,54,5.2 ± 1,7.4 ± 1.2,62.5,–,–,–,–,–,–,–,–
"O=C1/C(=N\Nc2ccc(Cl)cc2Cl)C(C(F)(F)C(F)(F)F)=NN1c1ccccc1 [6f, (4Z)-4-[2-(2,4-Dichlorophenyl)hydrazinylidene]-5-(pentafluoroethyl)-2-phenyl-2,4-dihydro-3H-pyrazol-3-one]",–,200,3.4 ± 0.7,100,> 200,–,–,6.6 ± 0.9,4.3 ± 0.8,> 250,> 200,> 200,inactive,–,–,–,–,–
"Cc1ccc(N/N=C2\C(=O)N(c3ccccc3)N=C2C(F)(F)C(F)(F)C(F)(F)C(F)(F)F)cc1 [8b, (4Z)-5-(Nonafluorobutyl)-4-[2-(4-methylphenyl)hydrazinylidene]-2-phenyl-2,4-dihydro-3H-pyrazol-3-one]",–,–,9 ± 1.4,100,–,–,–,12.1 ± 1.9,–,> 250,–,–,–,> 400000,0.05 ± 0.03,95.2,125,–
"O=[N+]([O-])c1ccc(OP(=O)(O)Oc2ccc([N+](=O)[O-])cc2)cc1 [BNPP, reference compound]",–,–,–,–,–,–,–,–,–,–,–,–,–,–,–,–,–,1800 ± 110
